Patent US20250090699A1, “FAP TARGETING CYCLIC PEPTIDES AND CONJUGATES THEREOF” (Novartis AG, priority 2023, published 2025)
Structures can show the parent of a compound that is named as a salt. Starred links: 1 amine or outer side, 2 acyl side, 3 side chain; linkers in the order of their positions; H or OH if unused. Non-standard residues stand in square brackets, D forms with d. Residues, ends and D or L forms follow the SMILES beside them. Groups on a side chain read outwards from the residue. *: point of attachment. F4(amMeGlyDOTALu) = lutetium complex of (S)-2,2',2''-(10-(2-((2-((4-(2-amino-2-carboxyethyl)benzyl)amino)-2-oxoethyl)(methyl)amino)-2-oxoethyl)-1,4,7,10-tetraazacyclododecane-1,4,7-triyl)triacetic acid (Phe with 4-aminomethyl-N-methyl-Gly-D, CN(CC(=O)NCc1ccc(C[C@H](N[*:1])C(=O)[*:2])cc1)C(=O)CN1CCN(CC(=O)[O-])CCN(CC(=O)[O-])CCN(CC(=O)[O-])CC1.[Lu+3]; Nicotinoyl(6-NMe3+) = C[N+](C)(C)c1ccc(C(=O)*)cn1; Phe(4-CH2NH2) = NCc1ccc(C[C@H](N)C(=O)O)cc1; Piperazinyl(4-CH2COOH) = O=C(O)CN1CCN(*)CC1; NMeF = CN[C@@H](Cc1ccccc1)C(=O)O; Aoc(2) = CCCCCC[C@H](N)C(=O)O; Ahp(2) = CCCCC[C@H](N)C(=O)O; hSer = N[C@@H](CCO)C(=O)O; AEEA = NCCOCCOCC(=O)O; CO = O=C([*:1])[*:2]; Propyl = CCC*

How the values were obtained:
human FAP [1] = biological target: T1, human FAP (Homo sapiens, UniProt Q12884); assay: Surface plasmon resonance (SPR) for peptide affinity, human FAP; type: binding; settings: read-out: h. FAP, SPR, KD
T1 construct: the biotinylated His, Avi tag, human FAP (26-760, FAP-H82Q6); His; Avi tag (biotinylated); purchased AcroBiosystems FAP-H82Q6
T1 sequence (Q12884 26-760): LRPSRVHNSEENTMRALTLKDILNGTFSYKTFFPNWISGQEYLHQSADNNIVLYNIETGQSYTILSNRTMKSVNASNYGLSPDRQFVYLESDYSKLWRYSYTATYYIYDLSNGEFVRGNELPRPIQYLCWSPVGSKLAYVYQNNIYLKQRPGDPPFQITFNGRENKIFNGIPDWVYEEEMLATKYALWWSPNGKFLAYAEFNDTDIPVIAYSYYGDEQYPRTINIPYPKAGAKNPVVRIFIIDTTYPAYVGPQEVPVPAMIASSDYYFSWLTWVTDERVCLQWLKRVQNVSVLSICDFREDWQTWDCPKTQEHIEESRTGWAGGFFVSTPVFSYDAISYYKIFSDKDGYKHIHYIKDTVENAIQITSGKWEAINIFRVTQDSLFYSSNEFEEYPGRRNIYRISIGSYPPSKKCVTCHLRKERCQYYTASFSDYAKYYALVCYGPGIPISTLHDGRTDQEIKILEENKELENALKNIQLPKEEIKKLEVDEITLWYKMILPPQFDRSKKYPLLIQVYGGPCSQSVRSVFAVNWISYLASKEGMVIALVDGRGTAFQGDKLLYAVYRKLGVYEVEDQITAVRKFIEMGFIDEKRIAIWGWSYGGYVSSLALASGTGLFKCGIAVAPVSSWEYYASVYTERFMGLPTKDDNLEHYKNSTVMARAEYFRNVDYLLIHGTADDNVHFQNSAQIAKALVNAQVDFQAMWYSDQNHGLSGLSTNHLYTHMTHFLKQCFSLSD
Protocol: Peptide affinities (KD) were determined by SPR using a Biacore™ 8K device (Cytiva) towards the following proteins: biotinylated His, Avi tag, human FAP (26-760, FAP-H82Q6), biotinylated His, Avi tag, mouse FAP (26-761, FAP-M82Q5), His tag, human DPP4 (34-766, DP4-H82E3), all purchased from AcroBiosystems and His tag, mouse DPP4 (29-760, 954-SE) from R&D Systems. The FAP proteins and their homologous were diluted to a concentration of 2 μg/mL into acetate buffer pH 5.5, then immobilized onto a CM5 sensorchip (Cytiva, BR-1005-30) to reach a response around 2000 R U. The running buffer HBS-EP+pH 7.6 (20× from Teknova CAT. No: H8022) contained 10 mM HEPES pH 7.6, 150 mM NaCl, 3 mM EDTA, 0.05% Tween20 and 2% DMSO. Experiments were carried out at 25° C. using a flow rate of 30 μL/min. Compounds were tested in single cycle kinetic mode at 8 different concentrations. Curve fitting was performed using the Biacore™ 8K evaluation software. The sensorgrams were fitted by applying a 1:1 binding model to calculate kinetic rate constants and equilibrium dissociation constants (KD).
For this assay, the setup had the same conditions (flow rate, running buffer, peptide dilution) as described above for the CM5 method. The oligo CAP reagent obtained in the CAPture Kit (Ref. 28920234) was 1/5 diluted into running buffer and used with a contact time of 300 s at a flow rate of 2 μL/min. The human and mouse FAP constructs described above were used (from AcroBiosystems or produced in house). The FAP proteins were diluted to a concentration of 2 μg/mL into acetate pH 5.5, 0.05% Tween20 and used with a contact time of 600 s at a flow rate of 10 μL/min. The peptides were tested with an association time of 280 s followed by a dissociation time of 3000 s at a flow rate of 30 μL/min. The regeneration was done using the regeneration solution (8 M guanidine-HCl, 1 M NaOH) as obtained with a contact time of 270 s at a flow rate of 10 μL/min. […] The compounds marked with an asterisk were tested against human and mouse DDP4.

mouse FAP [2] = biological target: T2, mouse FAP (Mus musculus, UniProt P97321); assay: Surface plasmon resonance (SPR) for peptide affinity, mouse FAP; type: binding
T2 construct: biotinylated His, Avi tag, mouse FAP (26-761, FAP-M82Q5); His; Avi tag (biotinylated); purchased AcroBiosystems FAP-M82Q5
T2 sequence (P97321 26-761): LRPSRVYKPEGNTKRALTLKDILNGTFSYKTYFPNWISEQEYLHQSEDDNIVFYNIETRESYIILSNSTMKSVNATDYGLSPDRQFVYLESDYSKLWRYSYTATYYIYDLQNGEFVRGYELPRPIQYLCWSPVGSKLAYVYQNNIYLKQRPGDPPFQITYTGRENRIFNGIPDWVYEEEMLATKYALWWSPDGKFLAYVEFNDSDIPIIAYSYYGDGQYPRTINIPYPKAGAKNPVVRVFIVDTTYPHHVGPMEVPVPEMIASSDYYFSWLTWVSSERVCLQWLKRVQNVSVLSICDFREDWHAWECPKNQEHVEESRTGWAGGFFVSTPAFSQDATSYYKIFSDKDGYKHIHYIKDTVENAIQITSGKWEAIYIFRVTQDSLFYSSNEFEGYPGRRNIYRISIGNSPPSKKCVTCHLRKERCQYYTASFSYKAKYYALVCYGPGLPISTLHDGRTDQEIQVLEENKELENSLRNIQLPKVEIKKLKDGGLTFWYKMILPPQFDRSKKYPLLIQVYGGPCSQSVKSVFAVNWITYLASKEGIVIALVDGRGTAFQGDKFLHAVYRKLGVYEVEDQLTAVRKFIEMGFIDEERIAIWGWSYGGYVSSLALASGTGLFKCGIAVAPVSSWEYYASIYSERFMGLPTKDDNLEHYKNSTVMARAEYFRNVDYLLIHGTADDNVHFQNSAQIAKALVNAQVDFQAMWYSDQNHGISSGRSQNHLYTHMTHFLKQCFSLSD
Outline: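 KD values come from a 1:1 kinetic fit of single-cycle SPR data: 8 peptide concentrations, 25 °C, 30 μL/min, HEPES-buffered saline pH 7.6 with 2% DMSO. Targets were His/Avi-tagged human (26-760) or mouse (26-761) FAP, amine-coupled to CM5 or held on a CAPture chip.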

human FAP [3] = biological target: T1, human FAP; assay: Enzymatic FAP competition assay (Z-Gly-Pro-AMC fluorescence), human FAP; type: biochemical; settings: read-out: h. FAP, Enz., IC50
Outline: (§1)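 IC50 values come from curve fitting of duplicate % inhibition data on AMC fluorescence (ex 380, em 460 nm) after 4 h at 22-24° C with 50 μM Z-Gly-Pro-AMC. Beforehand, peptides up to 1 μM (14 levels) sat 24 h with 0.01 nM human (26-760) or mouse (26-761) tagged FAP in phosphate buffer pH 7.5, NaCl, Tween20, 1% DMSO.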

mouse FAP [4] = biological target: T2, mouse FAP; assay: Enzymatic FAP competition assay (Z-Gly-Pro-AMC fluorescence), mouse FAP; type: biochemical; settings: read-out: m. FAP, Enz., IC50
Outline: as §1

| Compound | Kd (human FAP [1]) [nM] | Kd (mouse FAP [2]) [nM] | IC50 (human FAP [3]) [nM] | IC50 (mouse FAP [4]) [nM] |
| --- | --- | --- | --- | --- |
| CCCCCC[C@@H]1NC(=O)[C@H](Cc2ccc(CNC(=O)COCCOCCN)cc2)NC(=O)[C@H](Cc2ccccc2)N(C)C(=O)CNC(=O)CNC(=O)[C@H]2CCCN2C(=O)[C@H](CC(=O)O)NC(=O)[C@H](CCCCNC(=O)N2CCN(CC(=O)O)CC2)NC(=O)CNC(=O)[C@H](Cc2c[nH]c3ccccc23)NC1=O [Example A1, 2-((9S,12S,15S,18S,24S,27S,32aR)-18-((1H-indol-3-yl)methyl)-12-(4-((2-(2-(2-aminoethoxy)ethoxy)acetamido)methyl)benzyl)-9-benzyl-24-(4-(4-(carboxymethyl)piperazine-1-carboxamido)butyl)-15-hexyl-8-methyl-1,4,7,10,13,16,19,22,25,28-decaoxodotriacontahydropyrrolo[1,2-a][1,4,7,10,13,16,19,22,25,28]decaazacyclotriacontin-27-yl)acetic acid TFA salt] (cyclo([Aoc(2)]WGK([CO-Piperazinyl(4-CH2COOH)])D[dP]GG[NMeF][Phe(4-CH2NH2)](AEEA))) | < 0.007 | < 0.018 | 0.009 | 0.028 |
| Gly-Gly-NMePhe-F4(amMeGlyDOTALu)-Ahp-Trp-Gly-Tyr-Asp-D-Pro (cyclo(GG[NMeF][F4(amMeGlyDOTALu)][Ahp(2)]WGYD[dP]); also: Lu complex) [Example C8] | 0.004 | 0.006 | 0.007 | 0.012 |

Further lines, results first:

| Kd (human FAP [1]) [nM] | Kd (mouse FAP [2]) [nM] | IC50 (human FAP [3]) [nM] | IC50 (mouse FAP [4]) [nM] | Compound |
| --- | --- | --- | --- | --- |
| < 0.013 | < 0.014 | 0.006 | 0.016 | CCCCCC[C@@H]1NC(=O)[C@H](Cc2ccc(CNC(=O)COCCOCCNC(=O)c3ccc([N+](C)(C)C)nc3)cc2)NC(=O)[C@H](Cc2ccccc2)N(C)C(=O)CNC(=O)CNC(=O)[C@H]2CCCN2C(=O)[C@H](CC(=O)O)NC(=O)[C@H](CCCCNC(=O)N2CCN(CC(=O)O)CC2)NC(=O)CNC(=O)[C@H](Cc2c[nH]c3ccccc23)NC1=O [Example C57, Gly-Gly-NMePhe-F(4amPEG2NHCOPy3(4(NMe3)))-Aoc-Trp-Gly-K(COpipzaa)-Asp-D-Pro] (cyclo([Aoc(2)]WGK([CO-Piperazinyl(4-CH2COOH)])D[dP]GG[NMeF][Phe(4-CH2NH2)]([AEEA-Nicotinoyl(6-NMe3+)]))) |
| 0.163 | 0.185 | 0.117 | 0.4 | CCCCC[C@@H]1NC(=O)[C@H](Cc2ccc(O)cc2)NC(=O)[C@H](Cc2ccccc2)N(C)C(=O)CNC(=O)[C@@H]2CCCN2C(=O)[C@H]2CCCN2C(=O)[C@H](CC(=O)O)NC(=O)[C@H](Cc2ccc(O)cc2)NC(=O)CNC(=O)[C@H](Cc2c[nH]c3ccccc23)NC1=O [Example A51, 2-((6S,9S,15S,18S,21S,24S,29aS,34aR)-15-((1H-indol-3-yl)methyl)-24-benzyl-9,21-bis(4-hydroxybenzyl)-25-methyl-5,8,11,14,17,20,23,26,29,34-decaoxo-18-pentyldotriacontahydro-1H,5H-dipyrrolo[1,2-a:1′,2′-b1][1,4,7,10,13,16,19,22,25,28]decaazacyclotriacontin-6-yl)acetic acid] (cyclo(G[NMeF]Y[Ahp(2)]WGYD[dP]P)) |
| < 0.007 | < 0.017 | 0.006 | 0.017 | CCCOCC[C@@H]1NC(=O)[C@H](Cc2ccc(CNC(=O)COCCOCCNC(=O)c3ccc([N+](C)(C)C)nc3)cc2)NC(=O)[C@H](Cc2ccccc2)N(C)C(=O)CNC(=O)CNC(=O)[C@H]2CCCN2C(=O)[C@H](CC(=O)O)NC(=O)[C@H](CCCCNC(=O)N2CCN(CC(=O)O)CC2)NC(=O)CNC(=O)[C@H](Cc2c[nH]c3ccccc23)NC1=O [Example C58] (cyclo(D[dP]GG[NMeF][Phe(4-CH2NH2)]([AEEA-Nicotinoyl(6-NMe3+)])[hSer](Propyl)WGK([CO-Piperazinyl(4-CH2COOH)]))) |
